Experimental data taken from US20050208511A1, “DMBT1 as a clinical marker and uses thereof” (priority 2003, published 2005).

Tests used:
[1] = tested on: DMBT1; experiment: Northern analysis of DMBT1 expression in rat uterus; type: in vivo, Sprague Dawley rats; conditions: for DMBT1 expression on coadministration with estrone: 70 μg/kg/day estrone + 1 mg/kg/day compound, relative to estrone alone (FIG. 3A); for DMBT1 expression increase in uterine tissue: compound alone, oral, three days, estrone 70 μg/kg/day, others 1 mg/kg/day (FIG. 2)
Description: (§1) Ten groups of 22-day-old female Sprague Dawley rats (three animals per group) were used to evaluate the effects of estrone, tamoxifen, raloxifene, and ICI 182780 on DMBT1 expression in the uterus. The following groups of rats were treated for three days as follows:
(§2) All treatments were delivered orally in 0.5% Methocel. After treatment the animals were euthanized and the uteri were collected, weighed, frozen in liquid nitrogen, and stored at −20° C. RNA was purified from the frozen uteri using 1.0 mL of TRIzol Reagent (Invitrogen) and a PowerGen 25 tissue homogenizer (Fisher Scientific), according to the manufacturer's instructions.
Northern analysis was performed to determine gene expression, including DMBT1 expression, in the uterus of control and treated rats. For gel electrophoresis, samples containing 2 μg of total RNA in a volume of 2 μL of water were added to 6 microliters of formaldehyde loading dye (Ambion) and incubated at 65° C. for 20 minutes. One microliter of a 0.1 mg/ml ethidium bromide solution was then added to each sample. […] The RNA was transferred to a Hybond-N membrane (Amersham) for […] by capillary transfer blotting, using 10×SSC (0.15 M Sodium citrate, pH 7.0, 1.5 M NaCl), after which the membranes were stained with ethidium bromide, destained with water, and photographed for lane loading comparison. The membranes were then air-dried and kept at room temperature until hybridization.
A glycerol stock of a bacterial clone carrying a plasmid (pINCY) containing the rat ebnerin (DMBT1) gene was obtained from Incyte Genomics (ID#: 0000101155000011). […] One colony was selected and used to inoculate 200 mL of Lennox L Broth (Sigma)+50 μg/mL ampicillin (Sigma). The liquid culture was grown overnight at 37° C. and the bacteria were collected by centrifugation. Purification of plasmid DNA was carried out using a QIAfilter plasmid maxi kit (QIAgen) according to the manufacturer's instructions.
Purified pINCY/DMBT1 was treated with the restriction enzymes EcoRI and NotI (Promega) for the preparation and isolation of a 1,174 bp DNA fragment containing the ebnerin probe (DMBT1). The products of the restriction enzyme reaction were separated by electrophoresis on a 1× TAE, 1% SeaKem Gold Agarose Reliant gel, and the band corresponding to the 1.174 kb DNA ebnerin clone was excised. The ebnerin DNA probe was purified from the gel slice using a QIAquick Gel Extraction Kit (QIAgen) according to the manufacturer's instructions. Bound DNA was eluted from the QIAgen column with 50 μL of elution buffer. The ebnerin DNA probe in the eluate was quantified by comparison to a DNA standard by gel electrophoresis. The ebnerin DNA probe was then diluted to a final concentration of 25 ng/μL.
Random-primed probe was made from 25 ng of the purified ebnerin DNA using a DECAprime II kit (Ambion) and Redivue α-^32P dATP (10 mCi/mL) (Amersham) according to the manufacturer's instructions, with the exception that the reaction was incubated for 30 minutes at 37° C. After adding EDTA to stop the reaction, the labeled probe was purified using a QIAquick Nucleotide Removal Kit (QIAgen) according to the manufacturer's instructions, with the final volume of eluted probe being 50 μL. Two microliters were counted in a scintillation counter to ensure optimal radionuclide incorporation (>2×10^6 cpm/μL).
The blot membrane as described in section A was wet in 2×SSC buffer (Sigma) for 15 minutes, then pre-hybridized in 10 mL RapidHyb (Amersham) at 65° C. for 20 minutes. The probe was boiled for 10 minutes, and 25 μL was added to 10 mL of RapidHyb, pre-warmed to 65° C. The blot membrane was added to the diluted probe solution and incubated, with rotation, in a hybridization oven for approximately 10 hours.
The membrane was removed from the probe-containing solution and rinsed twice with 2×SSPE +0.5% SDS+0.5% pyrophosphate at room temperature, and then washed once, with gentle agitation, for 30 minutes at room temperature in the same solution.

[2] = tested on: uterus; experiment: uterine weight in 22-day-old female rats; type: in vivo, Sprague Dawley rats; conditions: oral
Description: as §1, §2
In rats, uteri increase in size under the proliferative influence of estrogen, and this increase in size can be measured by weighing the tissues.
Administration of the treatments and collection of tissue samples were carried out according to the procedure described in Example 2. RNA was purified, blotted and hybridized to radioactively labeled rat ebnerin cDNA as in described in Example 2.

[3] = tested on: DMBT1; experiment: quantitative RT-PCR of DMBT1 in uterus of ovariectomized rats; type: in vivo, Wistar rats; conditions: OVX rats, co-treatment with ethinyl estradiol (FIG. 3B)
Description: Six weeks old ovariectomized Wistar rats (Charles River, Wilmington, Mass.) were dosed for either one day or six weeks with vehicle or test compounds. All treatments were delivered orally, once daily, in 0.5% methylcellulose or sesame oil. After treatment, the uteri were removed, total RNA was purified from the tissues using TRIzol reagent (Invitrogen, Carlsbad, Calif.) as directed by the manufacturer.
Quantitative reverse transcription-polymerase chain reactions (RT-PCR) of DMBT1 from rat RNA samples were carried out using a One-Step RT-PCR Master Mix Kit (Applied Biosystems, Foster City, Calif.) and an ABI Prism 7000 Sequence Detection System (Applied Biosystems), as described by the manufacturer. Commercially available primers and FAM-labeled MGB probes for human and rat DMBT1 (catalog numbers Hs00244827_ml and Rn00575705_ml, respectively) were obtained from Applied Biosystems (Foster City, Calif.). Messenger RNA levels were normalized against 18S ribosomal RNA levels determined using primers and a VIC- and TAMRA-labeled probe from the same vendor.

[4] = tested on: luminal epithelium; experiment: luminal epithelium thickening in rat uterus sections; type: in vivo, Wistar rats; conditions: OVX rats dosed six weeks, compared to sham and ovariectomized control; estrogen = ethinyl estradiol
Description: Mature, six week-old ovariectomized or sham-operated Wistar rats (Charles River) were dosed with ethinyl estradiol, tamoxifen or raloxifene for six weeks. Uteri were removed, sectioned for immunohistochemical analysis for DMBT1 expression using a polyclonal goat antibody against the human protein.
Tissues were trimmed and processed for paraffin embedding according to conventional methods. Five-micron sections were cut, mounted onto SuperFrost Plus+(Fisher Scientific, Pittsburgh, Pa.) microscopic slides and dried overnight. The protocols for routine single immunohistochemistry (IHC) have been described previously (D'Andrea et al., 2001, Biotechnic Histochem. 76:97-106). Briefly, tissue sections on microscopic slides were dewaxed and re-hydrated. Slides were microwaved for 5 min in Target buffer (Dako, Carpenturia, Calif.), cooled, placed in phosphate-buffered saline (PBS, pH 7.4) and treated with 3% (v/v) H2O2 for 10 min at room temperature. All incubations (30 min each) and washes were performed at room temperature. Normal rabbit blocking serum (Vector Labs, Burlingame, Calif.) was placed on all slides for 10 min. After a brief rinse in PBS, sections were treated with goat polyclonal DMBT1 primary antibody (1:25, Hypromatrix, Worcester, Mass.). Slides were then washed in PBS and treated with rabbit anti-goat biotinylated secondary antibodies (Vector Labs). After washing in PBS, the avidin-biotin-horseradish peroxidase complex reagent (HRP, Vector Labs) was added. All slides were washed and treated with 3,3′-diaminobenzidine (DAB, Biomeda, Foster City, Calif.) two times for 5 min each, rinsed in distilled water, and counterstained with hematoxylin.

[5] = tested on: DMBT1; experiment: DNA microarray analysis of DMBT1 expression in endometrium of ovariectomized monkeys; type: in vivo, cynomolgus monkeys (Macaca fascicularis); conditions: OVX monkeys, estrogen implant 19 days vs Ovx/Placebo, endometrium, microarray
Text: (§3) Adult female cynomolgus monkeys (Macaca fascicularis) were obtained from Covance Research Products. Following one complete menstrual cycle and in the follicular phase of the subsequent menstrual cycle, the animals were ovariectomized by a mid-ventral laparotomy. Ovariectomized (OVX) animals were subject to estrogen treatment after the fourth week following ovariectomy.
(§4) Following this period, the OVX monkeys were euthanized and tissue biopsies were taken from endometria of the monkeys treated with estrogen and the placebo. (Details of the endometrial features in OVX monkeys and OVX+estrogen-treated monkeys is described in Example 4.) The biopsies were placed in sterile containers, snap frozen immediately in liquid nitrogen, and stored at −80° C. until processed. Total RNA was prepared from each endometrial tissue biopsy, as described below.
Total RNA was prepared from endometrial tissue biopsies (approximately 50 mg each) using RNAzol™ (Tel-Test, Friendswood, Tex.), as follows. Two milliliters of RNAzol™ were used per 100 mg of tissue. Tissues were homogenized for 2 to 3 minutes using a Tissue Tearor homogenizer (Model No. 985-370; BioSpec Products, Bartlesville, Okla.), then transferred to a glass mortar bowl. The tissues were ground with at least 10 strokes of the pestle until a clear suspension was obtained. The homogenates were transferred to a polypropylene conical flask, to which 0.1 mL of chloroform per 1 mL of homogenate was added. The mixtures were then shaken vigorously for 1 minute. The suspensions were then transferred to a 2 mL microcentrifuge tube and centrifuged for 15. minutes at 12000 g and at 4° C. in a fixed angle rotor using a Biofuge 17R centrifuge (Baxter, Deerfield, Ill.). The aqueous phase was carefully transferred to a new microcentrifuge tube. An equal volume of isopropanol was added to the aqueous phase, mixed gently, and incubated at 4° C. for 15 minutes. RNA was pelleted by centrifuging the mixture for 15 minutes at 12000 g and at 4° C. as described above. The supernatant was removed and the pellet washed with 75% (v/v) ethanol (Pharmco Products, Brookfield, Conn.), followed by centrifugation at 7500 g for 8 minutes at 4° C. The supernatant was removed, and then the RNA pellet was air-dried briefly and resuspended in RNase-free water (Promega, Madison, Wis.). The samples were then treated with Amplification Grade RNase-free DNase I to remove any residual DNA (Invitrogen, Carlsbad, Calif.). Specifically, twenty micrograms of RNA were treated in a reaction volume of 0.1 mL, containing 1× DNase I reaction buffer and 10 units of DNase I. The reaction continued at room temperature for 15 minutes. […]

[6] = tested on: monkey endometrium; experiment: DNA microarray gene expression profile (regulated gene identifiers) in endometrium of ovariectomized monkeys; type: in vivo, cynomolgus monkeys (Macaca fascicularis); conditions: Ovx/E2 vs Ovx/Placebo
Text: as §3, §4
Total RNA was prepared from endometrial tissue biopsies (approximately 50 mg each) using RNAzol™ (Tel-Test, Friendswood, Tex.), as follows. Two milliliters of RNAzol™ were used per 100 mg of tissue. Tissues were homogenized for 2 to 3 minutes using a Tissue Tearor homogenizer (Model No. 985-370; BioSpec Products, Bartlesville, Okla.), then transferred to a glass mortar bowl. The tissues were ground with at least 10 strokes of the pestle until a clear suspension was obtained. […]

[7] = tested on: endometrium; experiment: average endometrial thickness in treated monkeys; type: in vivo, cynomolgus monkeys (Macaca fascicularis); conditions: 19 days
Text: as §3
Animals and treatment were the same as Example 1 with the following exceptions. To study the effect of PRMs on the endometrium and gene expression, groups of three ovariectomized (OVX) monkeys were given an estrogen implant (E2), plus daily oral doses of the following PRMs for 19 days: mifepristone at 10 mg/kg/d; 17N11-DE (17β-N-substituted-11β-dimethylaminophenyl-estra-4,9-dien-3-one) 1.0, 3.0, or 10 mg/kg/d; 17N11-PE (17β-N-substituted-11β-piperidinylphenyl-estra-4,9-dien-3-one) at 1.0, 3.0, or 10 mg/kg/d. A placebo (0.5% methylcellulose) was administered as a control. 17N11-DE and 17N11-PE are two PRMs that have been described in PCT Publication No. WO 99/62928. Tissue samples were taken from endometria and myometria for histological analysis.

[8] = estrogen-stimulated endometrium (C)

## C[C@]12CC[C@@H]3c4ccc(O)cc4C[C@@H](CCCCCCCCC[S+]([O-])CCCC(F)(F)C(F)(F)F)[C@H]3[C@@H]1CC[C@@H]2O (some centres unmarked) [ICI 182780]
[1]; 1 mg/kg/day
  DMBT1 expression on coadministration with estrone: moderately lowered
[1]; listed as ICI 182,780, 1 mg/kg/day
  DMBT1 expression on coadministration with estrone: inhibited
[1]
  DMBT1 expression increase in uterine tissue: undetectable levels
[2]; 70 μg/kg/day estrone + 1 mg/kg/day compound, three days (FIG. 1)
  uterine weight on co-treatment with estrone: approximately between that of estrone (E) and ICI 182780 (1) treatments alone
[2]; compound alone, three days, estrone 70 μg/kg/day, others 1 mg/kg/day, vs control (FIG. 1)
  uterine weight: significant decrease in uterine weight

## C[C@]12CC[C@@H]3c4ccc(O)cc4CC[C@H]3[C@@H]1CCC2=O [estrone]
[1]
  DMBT1 expression increase in uterine tissue: ~5 fold

## CC(=O)O[C@]1(C(C)=O)CC[C@H]2[C@@H]3C[C@H](C)C4=CC(=O)CC[C@]4(C)[C@H]3CC[C@@]21C [medroxyprogesterone acetate]
[3]
  effect on ethinyl estradiol-induced increase in DMBT1 mRNA levels: blocked the increase in mRNA levels in a dose-dependent manner

## estrogen
[4]
  thickening of the luminal epithelium: expected thickening of the luminal epithelium
[5]
  expression of DMBT1 up-regulated: 37 fold
[6]
  PR gene regulation by estrogen: threefold up-regulation
  insulin-like growth factor binding protein 3 gene regulation by estrogen: tenfold down-regulation
[7]; Ovx/E2/Vehicle
  Endometrial Thickness (mm): 3.03 mm
[7]; [8]
  endometrial thickness relative to chemically castrated endometrium (B): 2.5 times
  endometrial thickness relative to ovariectomized control (A): seven to eight times thicker
